Several values for one entry are separate records, joined by “and”; a condition that tells them apart may be missing. Equal entries are not always repeated. Where two headings read alike, the source gives them in different places.
Key:
[1] = molecular target: BRD4 (Homo sapiens, UniProt O60885); assay: Western blot of BRD4 levels after cellular dosing; conditions: for BRD4 (DMSO = 100): Rep1, Rep2
[2] = test system: BRD proteins in U2OS KO/rescue lysate; assay: Degradation in non-denaturing lysates of U2OS KO/rescue cells; conditions: non-denaturing U2OS KO/rescue lysate 4mg/ml, 10 µM, 30° C

Structure (SMILES): COC(=O)CNC(=O)Cc1csc(-c2ccc3cccc(OCCN4CCN(C(=O)C[C@@H]5N=C(c6ccc(Cl)cc6)c6c(sc(C)c6C)-n6c(C)nnc65)CC4)c3c2)n1 [SJ46420]
- BRD4 level, Western blot quantification (DMSO = 100) ([1]; Fig S6g, SKBR3 Time course, 5 uM, 2hr): 109.415 and 100.234
- BRD4 level, Western blot quantification (DMSO = 100) ([1]; Fig S6g, SKBR3 Time course, 5 uM, 4hr): 59.7954 and 68.2545
- BRD4 level, Western blot quantification (DMSO = 100) ([1]; Fig S6g, SKBR3 Time course, 5 uM, 8hr): 59.199 and 52.2362
- BRD4 level, Western blot quantification (DMSO = 100) ([1]; Fig S6i, SKBR3, 5uM): 72.6081 and 84.277
- BRD4 level, Western blot quantification (DMSO = 100) ([1]; Fig S6i, U2OS, 5uM): 157.053 and 196.781
- BRD4 level, Western blot quantification (DMSO = 100) ([1]; Fig S6h, U2OS Time course, 5uM, 2hr): 126.968 and 100.342
- BRD4 level, Western blot quantification (DMSO = 100) ([1]; Fig S6h, U2OS Time course, 5uM, 4hr): 91.1641 and 100.137
- BRD4 level, Western blot quantification (DMSO = 100) ([1]; Fig S6h, U2OS Time course, 5uM, 8hr): 65.7267 and 72.5334
- BRD4 level, Western blot quantification (DMSO = 100) ([1]; Fig S6h, U2OS Time course, 5uM, 24hr): 56.1641 and 64.2352
- BRD4 level, Western blot quantification (DMSO = 100) ([1]; Fig S6d, U2OS KO/rescue Dose Response, 0.156 uM): 81.019 and 75.43
- BRD4 level, Western blot quantification (DMSO = 100) ([1]; Fig S6d, U2OS KO/rescue Dose Response, 0.313 uM): 75.0042 and 85.343
- BRD4 level, Western blot quantification (DMSO = 100) ([1]; Fig S6d, U2OS KO/rescue Dose Response, 0.625 uM): 69.2459 and 75.342
- BRD4 level, Western blot quantification (DMSO = 100) ([1]; Fig S6d, U2OS KO/rescue Dose Response, 1.25 uM): 72.3683 and 63.23
- BRD4 level, Western blot quantification (DMSO = 100) ([1]; Fig S6d, U2OS KO/rescue Dose Response, 2.5 uM): 72.6616 and 79.232
- BRD4 level, Western blot quantification (DMSO = 100) ([1]; Fig S6d, U2OS KO/rescue Dose Response, 5 uM): 65.5064 and 72.323
- BRD4 level relative to DMSO (100%) ([1]; MDA-MB-468, 2.5µM, 24 h, Fig S6b): 90 +/- 6.3%
- BRD4 level relative to DMSO (100%) ([1]; MDA-MB-468, 5µM, 24 h, Fig S6b): 78 +/- 4.3%
- BRD4 level relative to DMSO (100%) ([1]; MDA-MB-468, 10µM, 24 h, Fig S6b): 68 +/- 3.6%
- BRD4 level relative to DMSO (100%) ([1]; PC3, 0.16µM, 24 h, Fig S6e): 78 +/- 4.1%
- BRD4 level relative to DMSO (100%) ([1]; PC3, 0.31µM, 24 h, Fig S6e): 80 +/- 7.3%
- BRD4 level relative to DMSO (100%) ([1]; PC3, 0.63µM, 24 h, Fig S6e): 72 +/- 4.3%
- BRD4 level relative to DMSO (100%) ([1]; PC3, 1.3µM, 24 h, Fig S6e): 67 +/- 6.5%
- BRD4 level relative to DMSO (100%) ([1]; PC3, 2.5µM, 24 h, Fig S6e): 75 +/- 4.7%
- BRD4 level relative to DMSO (100%) ([1]; PC3, 5µM, 24 h, Fig S6e): 68 +/- 4.8%
- BRD4 level relative to DMSO (100%) ([1]; PC3, 10µM, 24 h, Fig S6e): 44 +/- 5.7%
- BRD4 (DMSO = 100) ([1]; PC3 cells, Log SJ46420 1.89279): 90.1763 and 93.433
- BRD4 (DMSO = 100) ([1]; PC3 cells, Log SJ46420 4): 40.11 and 48.232
- BRD4 level relative to DMSO (100%) ([1]; SKBR3, 1µM, 2hr, Fig S6g): 102 +/- 3.1%
- BRD4 level relative to DMSO (100%) ([1]; SKBR3, 1µM, 4hr, Fig S6g): 78 +/- 4.7%
- BRD4 level relative to DMSO (100%) ([1]; SKBR3, 1µM, 8hr, Fig S6g): 75 +/- 4.5%
- BRD4 level relative to DMSO (100%) ([1]; SKBR3, 5µM, 2hr, Fig S6g): 104 +/- 6.7%
- BRD4 level relative to DMSO (100%) ([1]; SKBR3, 5µM, 4hr, Fig S6g): 63 +/- 5.8%
- BRD4 level relative to DMSO (100%) ([1]; SKBR3, 5µM, 4hr, Fig S6j): 78 +/- 8.2%
- BRD4 level relative to DMSO (100%) ([1]; SKBR3, 5µM, 8hr, Fig S6g): 55 +/- 5.1%
- BRD4 level relative to DMSO (100%) ([1]; U2OS DC2KO (KLHDC2 knockout), 5µM, 24 h, Fig 6b): 99 +/- 12%
- BRD4 (DMSO = 100) ([1]; U2OS KO/Rescue cells, Log SJ46420 1.59176): 106.334 and 102.232
- BRD4 level relative to DMSO (100%) ([1]; U2OS KO/Rescue, 0.16µM, 24 h, Fig S6d): 92 +/- 9.3%
- BRD4 level relative to DMSO (100%) ([1]; U2OS KO/Rescue, 0.31µM, 24 h, Fig S6d): 83 +/- 16%
- BRD4 level relative to DMSO (100%) ([1]; U2OS KO/Rescue, 0.63µM, 24 h, Fig S6d): 69 +/- 12%
- BRD4 level relative to DMSO (100%) ([1]; U2OS KO/Rescue, 1µM, 24 h, Fig 6c): 90 +/- 4.1%
- BRD4 level relative to DMSO (100%) ([1]; U2OS KO/Rescue, 1µM, 24 h, Fig 6d): 75 +/- 10%
- BRD4 level relative to DMSO (100%) ([1]; U2OS KO/Rescue, 1.3µM, 24 h, Fig S6d): 46 +/- 15%
- BRD4 level relative to DMSO (100%) ([1]; U2OS KO/Rescue, 2.5µM, 24 h, Fig S6d): 26 +/- 2.1%
- BRD4 level relative to DMSO (100%) ([1]; U2OS KO/Rescue, 5µM, 24 h, Fig S6d): 3.4 +/- 0.69%
- BRD4 Dmax ([1]; U2OS KO/Rescue, 24 h dose): ~ 100%
- BRD4 level relative to DMSO (100%) ([1]; U2OS KO/Rescue, concentration not printed (line after 5µM), 24 h, Fig S6d): 0.51 +/- 0.21%
- BRD4 level relative to DMSO (100%) ([1]; U2OS, 5µM, 4hr, Fig S6h): 96 +/- 7.2%
- BRD4 level relative to DMSO (100%) ([1]; U2OS, 5µM, 8hr, Fig S6i): 176 +/- 28%
- BRD4 level relative to DMSO (100%) ([1]; U2OS, 5µM, 8hr, Fig S6h): 69 +/- 4.4%
- BRD4 level relative to DMSO (100%) ([1]; U2OS, 5µM, 24 h, Fig 6b): 74 +/- 4.1%
- BRD4 level relative to DMSO (100%) ([1]; U2OS, 5µM, 24hr, Fig S6h): 60 +/- 5.6%
- Dmax ([1]; U2OS, read-out: BRD4 Dmax, U2OS KO/Rescue, 24 h dose): 99.4%
- Dmax ([1]; read-out: BRD4 Dmax, PC3, 24 h dose): 59.5%
- degrader dependent decrease in BRD protein levels in lysate [2]: did not observe a degrader dependent decrease
